Experiments:
Type in all cases: in vivo
[1] = test system: Aegilops tauschii; assay: Soil sealing treatment pot experiment for controlling Aegilops tauschii (Example 1); conditions: for control effect on Aegilops tauschii: single active ingredient, summary of Table 2
Excerpt: (§1) Referring to an article of Colby, S. R. i.e., Calculation of the synergistic and antagonistic response of herbicide combinations. Weeds 1967, 15, pp. 20-22 (which is incorporated herein in its entirety by reference), the theoretical value E0 of a given mixture of three active ingredients may be predicted according to the following equation, then evaluating whether there is synergy.
(§2) [formula] • wherein: • E0 is the theoretical fresh weight survival rate for the mixture of pyroxasulfone, chlorotoluron and […]; • X is the measured fresh weight survival rate for pyroxasulfone used alone in the same dosage as that in the mixture; • Y is the measured fresh weight survival rate for chlorotoluron used alone in the same dosage as that in the mixture; • Z is the measured fresh weight survival rate for mesosulfuron-methyl used alone in the same dosage as that in the mixture. • E is the measured fresh weight survival rate for the mixture of pyroxasulfone, chlorotoluron and mesosulfuron-methyl. • E0-E value is calculated to evaluate the combined effect of pyroxasulfone, chlorotoluron and mesosulfuron-methyl on the selected weeds.
(§3) In this example, the herbicidal activity of a mixture of pyroxasulfone, chlorotoluron and mesosulfuron-methyl for soil sealing treatment to control Aegilops tauschii is investigated by a pot experiment method under the conditions of a glass greenhouse. This example is carried out in accordance with “NY/T 1155.4-2006 Guidelines for Indoor Bioassay Tests of Pesticides, Herbicides Part 4: Activity Determination Tests, Stem and Leaf Spray Method”.
(§4) • Pyroxasulfone: pyroxasulfone (850 g/Kg, WG) from Adama Agan LTD. • Chlorotoluron: chlorotoluron (90 wt %, WG) from Adama Agan LTD. • Mesosulfuron-methyl: Sigma (30 g/L, OD) from Bayer AG. • Test location: Greenhouse of Institute of Plant Protection, Shandong Academy of Agricultural Sciences • Cultivation of test materials: The test soil is formed by mixing the 20 cm layer loam on the ground surface and the culture medium in a ratio of 3:1 as cultivation soil.
(§5) The test weeds are cultivated in a glass greenhouse at a temperature of 15-30° C. and natural light. A certain amount of Aegilops tauschil seeds are sown in a plastic pot with a diameter of 9 cm, covering with 1-2 mm soil, and putting them in an enamel dish filled with water. The bottom infiltration method is used to water them, waiting for the water to seep to the soil surface, and then transferring to a glass greenhouse for cultivation. The agents are applied on the second day after sowing Aegilops tauschii seeds.
(§6) For each active ingredient, the multiple dilution method is used to obtain the other five lower dosages from the highest dosage. A certain amount of agent is measured by pipette or balance, adding it directly to the water, and then diluting it to the required dosage by the multiple dilution method.
(§7) Spraying treatment: ASS-4 automatic control spraying system with a fan-shaped nozzle is used indoors to spray agent, the running speed is adjusted based on nozzle pressure, flow rate, etc. to spray 50 mL of chemical solution on the actual spray area of 1.1 m^2 (equivalent to 30 liters per mu), arranging the plastic pots to be processed on the spraying table evenly, and spraying evenly. The spraying pressure is 0.35 MPa, and the flow rate of the fan-shaped nozzle is 800 mL/min, spraying in order from low dosage to high dosage. Each treatment is repeated 3 times. After spraying, let it dry for one day, placing it in a glass greenhouse, and watering it regularly to keep moist.
Application time and frequency: the experiment is conducted on the second day after sowing Aegilops tauschii seeds, and the soil is evenly sprayed. The application time is Mar. 10, 2020, with one application.
Weed investigation method and time: after applying the agent, the symptoms of weed damage (such as growth inhibition, chlorosis, deformity, etc.) are recorded in detail. […]

[2] = test system: Lolium multiflorum Lamk; assay: Soil sealing treatment pot experiment for controlling Lolium multiflorum Lamk (Example 2); conditions: 35 days
[3] = test system: Aegilops tauschii; assay: Soil sealing treatment pot experiment for controlling Aegilops tauschii, more mixing ratios (Example 3)
Excerpt: as §1, §2, §3, §4, §5, §6, §7
Weed investigation method and time: after applying the agent, the symptoms of weed damage (such as growth inhibition, chlorosis, deformity, etc.) are recorded in detail. After 35 days, the fresh weight of aerial part of the weeds in each treatment is weighed, and the measured fresh weight inhibition rate and the measured fresh weight survival rate for each treatment are calculated according to the following equations: […]

Cc1ccc(NC(=O)N(C)C)cc1Cl [chlorotoluron, 3-(3-chloro-4-methylphenyl)-N,N-dimethylurea]
Measured fresh weight survival rate (%) - E ([1]; 70.3125 gai/ha, 35 days): 102.6% | Measured fresh weight survival rate (%) - E ([1]; 140.625 gai/ha, 35 days): 101.3% | Measured fresh weight survival rate (%) - E ([1]; 281.25 gai/ha, 35 days): 92.21% | Measured fresh weight survival rate (%) - E ([1]; 562.5 gai/ha, 35 days): 81.82% | Measured fresh weight survival rate (%) - E ([1]; 1125 gai/ha, 35 days): 72.73% | Measured fresh weight survival rate (%) - E ([1]; 2250 gai/ha, 35 days): 36.36% | inhibition at 70.3125 g/ha ([1]; Aegilops tauschii, soil, 840 h, 70.3125 gai/ha, 35 days, read-out: Measured fresh weight inhibition rate (%)): -2.6% | inhibition at 140.625 g/ha ([1]; Aegilops tauschii, soil, 840 h, 140.625 gai/ha, 35 days, read-out: Measured fresh weight inhibition rate (%)): -1.3% | inhibition at 281.25 g/ha ([1]; Aegilops tauschii, soil, 840 h, 281.25 gai/ha, 35 days, read-out: Measured fresh weight inhibition rate (%)): 7.79% | inhibition at 562.5 g/ha ([1]; Aegilops tauschii, soil, 840 h, 562.5 gai/ha, 35 days, read-out: Measured fresh weight inhibition rate (%)): 18.2% | inhibition at 1125 g/ha ([1]; Aegilops tauschii, soil, 840 h, 1125 gai/ha, 35 days, read-out: Measured fresh weight inhibition rate (%)): 27.3% | inhibition at 2250 g/ha ([1]; Aegilops tauschii, soil, 840 h, 2250 gai/ha, 35 days, read-out: Measured fresh weight inhibition rate (%)): 63.6% | control effect on Aegilops tauschii [1]: certain effect | Measured fresh weight survival rate (%) - E ([2]; 70.3125 gai/ha): 96.7% | Measured fresh weight survival rate (%) - E ([2]; 140.625 gai/ha): 91.21% | Measured fresh weight survival rate (%) - E ([2]; 281.25 gai/ha): 87.91% | Measured fresh weight survival rate (%) - E ([2]; 562.5 gai/ha): 83.52% | Measured fresh weight survival rate (%) - E ([2]; 1125 gai/ha): 25.27% | Measured fresh weight survival rate (%) - E ([2]; 2250 gai/ha): 0% | inhibition at 70.3125 g/ha ([2]; Lolium multiflorum, soil, 840 h, 70.3125 gai/ha, read-out: Measured fresh weight inhibition rate (%)): 3.3% | inhibition at 140.625 g/ha ([2]; Lolium multiflorum, soil, 840 h, 140.625 gai/ha, read-out: Measured fresh weight inhibition rate (%)): 8.79% | inhibition at 281.25 g/ha ([2]; Lolium multiflorum, soil, 840 h, 281.25 gai/ha, read-out: Measured fresh weight inhibition rate (%)): 12.1% | inhibition at 562.5 g/ha ([2]; Lolium multiflorum, soil, 840 h, 562.5 gai/ha, read-out: Measured fresh weight inhibition rate (%)): 16.5% | inhibition at 1125 g/ha ([2]; Lolium multiflorum, soil, 840 h, 1125 gai/ha, read-out: Measured fresh weight inhibition rate (%)): 74.7% | inhibition at 2250 g/ha ([2]; Lolium multiflorum, soil, 840 h, 2250 gai/ha, read-out: Measured fresh weight inhibition rate (%)): 100% | Actual fresh weight survival rate (%) - E ([3]; 562.5 gai/ha): 80.2% | Actual fresh weight survival rate (%) - E ([3]; 1125 gai/ha): 72.4% | Actual fresh weight survival rate (%) - E ([3]; 2250 gai/ha): 52.6% | inhibition at 562.5 g/ha ([3]; Aegilops tauschii, soil, 562.5 gai/ha, read-out: Actual fresh weight inhibition rate %): 19.8% | inhibition at 1125 g/ha ([3]; Aegilops tauschii, soil, 1125 gai/ha, read-out: Actual fresh weight inhibition rate %): 27.6% | inhibition at 2250 g/ha ([3]; Aegilops tauschii, soil, 2250 gai/ha, read-out: Actual fresh weight inhibition rate %): 47.4%

COC(=O)c1ccc(CNS(C)(=O)=O)cc1S(=O)(=O)NC(=O)Nc1nc(OC)cc(OC)n1 [mesosulfuron-methyl, 2-[3-(4,6-dimethoxypyrimidin-2-yl)ureasulfonyl]-4-methylsulfonamide methyl benzoate]
Measured fresh weight survival rate (%) - E ([1]; 1.25 gai/ha, 35 days): 96.1% | Measured fresh weight survival rate (%) - E ([1]; 2.5 gai/ha, 35 days): 100% | Measured fresh weight survival rate (%) - E ([1]; 5 gai/ha, 35 days): 94.81% | Measured fresh weight survival rate (%) - E ([1]; 10 gai/ha, 35 days): 83.12% | Measured fresh weight survival rate (%) - E ([1]; 20 gai/ha, 35 days): 71.43% | Measured fresh weight survival rate (%) - E ([1]; 40 gai/ha, 35 days): 88.31% | inhibition at 1.25 g/ha ([1]; Aegilops tauschii, soil, 840 h, 1.25 gai/ha, 35 days, read-out: Measured fresh weight inhibition rate (%)): 3.9% | inhibition at 2.5 g/ha ([1]; Aegilops tauschii, soil, 840 h, 2.5 gai/ha, 35 days, read-out: Measured fresh weight inhibition rate (%)): 0% | inhibition at 5 g/ha ([1]; Aegilops tauschii, soil, 840 h, 5 gai/ha, 35 days, read-out: Measured fresh weight inhibition rate (%)): 5.19% | inhibition at 10 g/ha ([1]; Aegilops tauschii, soil, 840 h, 10 gai/ha, 35 days, read-out: Measured fresh weight inhibition rate (%)): 16.9% | inhibition at 20 g/ha ([1]; Aegilops tauschii, soil, 840 h, 20 gai/ha, 35 days, read-out: Measured fresh weight inhibition rate (%)): 28.6% | inhibition at 40 g/ha ([1]; Aegilops tauschii, soil, 840 h, 40 gai/ha, 35 days, read-out: Measured fresh weight inhibition rate (%)): 11.7% | control effect on Aegilops tauschii [1]: substantively ineffective | Measured fresh weight survival rate (%) - E ([2]; 1.25 gai/ha): 96.7% | Measured fresh weight survival rate (%) - E ([2]; 2.5 gai/ha): 94.51% | Measured fresh weight survival rate (%) - E ([2]; 5 gai/ha): 83.52% | Measured fresh weight survival rate (%) - E ([2]; 10 gai/ha): 60.44% | Measured fresh weight survival rate (%) - E ([2]; 20 gai/ha): 39.56% | Measured fresh weight survival rate (%) - E ([2]; 40 gai/ha): 6.59% | inhibition at 1.25 g/ha ([2]; Lolium multiflorum, soil, 840 h, 1.25 gai/ha, read-out: Measured fresh weight inhibition rate (%)): 3.3% | inhibition at 2.5 g/ha ([2]; Lolium multiflorum, soil, 840 h, 2.5 gai/ha, read-out: Measured fresh weight inhibition rate (%)): 5.49% | inhibition at 5 g/ha ([2]; Lolium multiflorum, soil, 840 h, 5 gai/ha, read-out: Measured fresh weight inhibition rate (%)): 16.5% | inhibition at 10 g/ha ([2]; Lolium multiflorum, soil, 840 h, 10 gai/ha, read-out: Measured fresh weight inhibition rate (%)): 39.6% | inhibition at 20 g/ha ([2]; Lolium multiflorum, soil, 840 h, 20 gai/ha, read-out: Measured fresh weight inhibition rate (%)): 60.4% | inhibition at 40 g/ha ([2]; Lolium multiflorum, soil, 840 h, 40 gai/ha, read-out: Measured fresh weight inhibition rate (%)): 93.4% | Actual fresh weight survival rate (%) - E ([3]; 5 gai/ha): 93.1% | Actual fresh weight survival rate (%) - E ([3]; 10 gai/ha): 88.8% | Actual fresh weight survival rate (%) - E ([3]; 20 gai/ha): 76.7% | inhibition at 5 g/ha ([3]; Aegilops tauschii, soil, 5 gai/ha, read-out: Actual fresh weight inhibition rate %): 6.9% | inhibition at 10 g/ha ([3]; Aegilops tauschii, soil, 10 gai/ha, read-out: Actual fresh weight inhibition rate %): 11.2% | inhibition at 20 g/ha ([3]; Aegilops tauschii, soil, 20 gai/ha, read-out: Actual fresh weight inhibition rate %): 23.3%

From patent publication US12564194B2, “Herbicide mixture, herbicidal composition, method and kit for controlling undesired vegetation” (Adama Agan Ltd., priority 2020, dated 2026)
